Reference: PubChem BioAssay (NCI)
Values joined by “and” are separate entries in the source; they are usually repeats but may differ in a detail not shown here. Equal values may be shown once.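 1) Cells in 96-well plates. 2) Compound, 48 h, 5 concentrations. 3) Linear interpolation between surrounding doses. 4) Unreached endpoint = highest concentration. At the GI50, growth is halved. Definition used: TGI = concentration required for complete inhibition of growth.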

Each compound was assayed on SF-295 CNS (assay: DTP human tumour cell line panel, 48 h).
`CCN(CC)CCCN1CCc2c([nH]c3ccccc23)C1c1cccnc1` (stereo unspecified) was tested, and the TGI was greater than 100 µM. `Cn1cc(C2=C(c3ccc(N)cc3)C(=O)NC2=O)c2ccccc21` gave a GI50 of 15.7 µM and a TGI greater than 25 µM. With `Cc1cc(Cl)cc(OCCn2cc(F)cn2)c1-c1nc(N)nc2c1CN(C(=O)NCC(C)(F)F)C2` the GI50 was 0.131 µM and the TGI was greater than 93.9 µM. In the case of `COc1ccc(/C=C\[N+](=O)[O-])cc1OC`, the GI50 is reported as 12.2 µM and the TGI is reported as 33.9 µM. `CCN(CC)CCC(CNc1ccnc2cc(Cl)ccc12)c1ccc(Cl)cc1` (stereo unspecified) was tested, and the GI50 was 1.02 µM and the TGI was 2.64 µM. `COc1cccc(F)c1C(=O)c1cnc(NC2CCN(S(C)(=O)=O)CC2)nc1N` gave a GI50 of 3 µM and a TGI greater than 25 µM. With `c1ccc2cc(-c3cc4ccccc4s3)ccc2c1` the TGI was greater than 100 µM. In the case of `CCOC(=O)C(C#N)C1=CC(=O)C(=O)c2ccc(OC)cc21` (stereo unspecified), the TGI is reported as 58.3 µM. In the case of `COc1cc(OCc2cccc(-c3ccc(C(O)c4nccs4)cc3)c2C)cc(OC)c1C=O` (stereo unspecified), the GI50 is reported as 2.12 µM and the TGI is reported as 6.58 µM. With `COC(=O)c1ccc2c(c1)nc(NC(=O)c1ccccc1)n2CCCc1ccccc1` the GI50 was 3.62 µM and the TGI was greater than 100 µM. `Cc1ccc(S(=O)(=O)Nc2ccccc2C=O)cc1` was tested, and the TGI was 85.6 µM. For `O=C(O)COc1ccc2c(=O)c3sc4c(=O)c5ccccc5c(=O)c4c3c(=O)c2c1`, the GI50 was 6.72 µM and the TGI was 20.6 µM. `Cc1ccc(S(=O)(=O)N(C=O)N=C2CCN(Cc3ccccc3)CC2)cc1` was tested, and the TGI was greater than 100 µM. Work on `CC1(C)S[C@@H]2[C@H](NC(=O)C3(N)CCCCC3)C(=O)N2[C@H]1C(=O)O` yielded a TGI greater than 100 µM. For `NC(=O)/C=C/C(=O)c1c(Cl)cccc1Cl`, the GI50 was 2.54 µM and the TGI was 7.35 µM.

What follows are compounds tested on ACHN renal (assay: DTP human tumour cell line panel, 48 h).
Work on `COC(=O)C(C(=O)c1ccccc1)C(C(=O)C(=O)Nc1ccc(OC)cc1OC)C(=O)C(=O)c1ccc(C)cc1` (stereo unspecified) yielded a TGI greater than 100 µM. For `O=C1CCC2(c3ccc(Cl)cc3)Nc3ncccc3N12` (stereo unspecified), the TGI was greater than 100 µM. For `COc1ccc(Sc2[nH]c(C(C)=O)c3ccccc23)cc1`, the GI50 was 16.5 µM and the TGI was 49.6 µM. `CC12C/C(=C\c3ccccc3)C(=O)C3C1CCCC32` gave a TGI greater than 100 µM. `OC(CC1SCCCS1)c1ccccc1` (stereo unspecified) showed a TGI greater than 100 µM. `CCCCOC(=O)CNC(=O)OC/C=C/C#CC#C/C=C/COC(=O)NCC(=O)OCCCC` gave a GI50 greater than 100 µM and a TGI greater than 100 µM. `COc1ccc(OC)c2c1[nH]c(=O)c1c3ccccc3cn21` gave a GI50 of 1.11 µM and a TGI of 2.37 µM. Work on `COc1cccc2c1C(=O)c1c(O)c3c(c(O)c1C2=O)C[C@@](O)(C(=O)CO)C[C@@H]3OC1CC(N)CC(C)O1` (stereo partly specified) yielded a GI50 of 0.0175 µM and a TGI of 0.289 µM. `O=C1c2ccccc2C(=O)N1CCn1ccc(NC(c2ccccc2)(c2ccccc2)c2ccccc2)nc1=O` was tested, and the TGI was 92.7 µM. In the case of `CC(C)(C)NNC(=O)CCn1[nH]c(=O)c(Cl)c(Cl)c1=O`, the TGI is reported as greater than 100 µM. For `CN(C)CCNC(=O)c1cccc2ccc(-c3ccc(O)cc3)nc12`, the TGI was 4.98 µM. With `COc1cc(Nc2ncccc2C(=O)NCc2cn(Cc3cccc(Oc4ccccc4)c3)nn2)cc(OC)c1` the GI50 was 6.9 µM and the TGI was greater than 100 µM. `Nc1ccc([N+](=O)[O-])cc1N=C/C=C/c1ccccc1` showed a GI50 of 34.4 µM and a TGI greater than 100 µM. With `COc1cc(-c2oc(=O)ccc2C#Cc2ccccn2)cc(OC)c1OC` the GI50 was 11.7 µM and the TGI was greater than 100 µM. For `COc1cccc(C2CC(C)(O)Oc3cc4c(cc32)OCO4)c1O` (stereo unspecified), the TGI was greater than 100 µM. `CCN(CC)CCCN1CCc2c([nH]c3ccccc23)C1c1cccnc1` (stereo unspecified) gave a TGI greater than 100 µM. For `Cn1cc(C2=C(c3ccc(N)cc3)C(=O)NC2=O)c2ccccc21`, the GI50 was 13.4 µM and the TGI was greater than 25 µM. In the case of `Cc1cc(Cl)cc(OCCn2cc(F)cn2)c1-c1nc(N)nc2c1CN(C(=O)NCC(C)(F)F)C2`, the GI50 is reported as 0.184 µM and the TGI is reported as greater than 100 µM. Work on `COc1ccc(/C=C\[N+](=O)[O-])cc1OC` yielded a GI50 of 3.68 µM and a TGI of 13.9 µM. `CCN(CC)CCC(CNc1ccnc2cc(Cl)ccc12)c1ccc(Cl)cc1` (stereo unspecified) showed a GI50 of 0.467 µM and a TGI of 1.78 µM. In the case of `COc1cccc(F)c1C(=O)c1cnc(NC2CCN(S(C)(=O)=O)CC2)nc1N`, the GI50 is reported as 2.16 µM and the TGI is reported as greater than 25 µM. `c1ccc2cc(-c3cc4ccccc4s3)ccc2c1` showed a TGI greater than 100 µM. `CCOC(=O)C(C#N)C1=CC(=O)C(=O)c2ccc(OC)cc21` (stereo unspecified) was tested, and the TGI was 30.9 µM. With `COc1cc(OCc2cccc(-c3ccc(C(O)c4nccs4)cc3)c2C)cc(OC)c1C=O` (stereo unspecified) the GI50 was 1.72 µM and the TGI was 6.68 µM. `COC(=O)c1ccc2c(c1)nc(NC(=O)c1ccccc1)n2CCCc1ccccc1` showed a GI50 of 3.75 µM and a TGI greater than 100 µM. `Cc1ccc(S(=O)(=O)Nc2ccccc2C=O)cc1` was tested, and the TGI was 46.7 µM. For `O=C(O)COc1ccc2c(=O)c3sc4c(=O)c5ccccc5c(=O)c4c3c(=O)c2c1`, the GI50 was 23 µM and the TGI was greater than 100 µM. `Cc1ccc(S(=O)(=O)N(C=O)N=C2CCN(Cc3ccccc3)CC2)cc1` gave a TGI greater than 100 µM. For `CC1(C)S[C@@H]2[C@H](NC(=O)C3(N)CCCCC3)C(=O)N2[C@H]1C(=O)O`, the TGI was greater than 100 µM. In the case of `NC(=O)/C=C/C(=O)c1c(Cl)cccc1Cl`, the GI50 is reported as 0.323 µM and the TGI is reported as 0.853 µM.

The compounds below were run on NCI-H226 lung (assay: DTP human tumour cell line panel, 48 h).
Work on `COC(=O)C(C(=O)c1ccccc1)C(C(=O)C(=O)Nc1ccc(OC)cc1OC)C(=O)C(=O)c1ccc(C)cc1` (stereo unspecified) yielded a TGI greater than 100 µM. With `O=C1CCC2(c3ccc(Cl)cc3)Nc3ncccc3N12` (stereo unspecified) the TGI was greater than 100 µM. With `COc1ccc(Sc2[nH]c(C(C)=O)c3ccccc23)cc1` the GI50 was 5.66 µM and the TGI was 27.6 µM. `CC12C/C(=C\c3ccccc3)C(=O)C3C1CCCC32` was tested, and the TGI was greater than 100 µM. `OC(CC1SCCCS1)c1ccccc1` (stereo unspecified) gave a TGI greater than 100 µM. Compound `CCCCOC(=O)CNC(=O)OC/C=C/C#CC#C/C=C/COC(=O)NCC(=O)OCCCC` has a TGI greater than 10 µM. `COc1ccc(OC)c2c1[nH]c(=O)c1c3ccccc3cn21` showed a GI50 of 1.61 µM and a TGI of 3.29 µM. For `COc1cccc2c1C(=O)c1c(O)c3c(c(O)c1C2=O)C[C@@](O)(C(=O)CO)C[C@@H]3OC1CC(N)CC(C)O1` (stereo partly specified), the GI50 was 0.00987 µM and 0.0723 µM and 0.0435 µM and the TGI was 0.282 µM and 0.132 µM. Work on `O=C1c2ccccc2C(=O)N1CCn1ccc(NC(c2ccccc2)(c2ccccc2)c2ccccc2)nc1=O` yielded a TGI of 34.1 µM. For `CC(C)(C)NNC(=O)CCn1[nH]c(=O)c(Cl)c(Cl)c1=O`, the TGI was greater than 100 µM. In the case of `CN(C)CCNC(=O)c1cccc2ccc(-c3ccc(O)cc3)nc12`, the GI50 is reported as 0.94 µM and the TGI is reported as 6.33 µM and 3.6 µM. `COc1cc(Nc2ncccc2C(=O)NCc2cn(Cc3cccc(Oc4ccccc4)c3)nn2)cc(OC)c1` was tested, and the GI50 was 9.82 µM and the TGI was greater than 100 µM. `Nc1ccc([N+](=O)[O-])cc1N=C/C=C/c1ccccc1` gave a GI50 of 27.8 µM and a TGI greater than 100 µM. `COc1cc(-c2oc(=O)ccc2C#Cc2ccccn2)cc(OC)c1OC` showed a GI50 of 7.76 µM and a TGI greater than 100 µM. Compound `COc1cccc(C2CC(C)(O)Oc3cc4c(cc32)OCO4)c1O` (stereo unspecified) has a TGI of 57.9 µM. For `CCN(CC)CCCN1CCc2c([nH]c3ccccc23)C1c1cccnc1` (stereo unspecified), the TGI was greater than 100 µM. `Cn1cc(C2=C(c3ccc(N)cc3)C(=O)NC2=O)c2ccccc21` gave a GI50 of 16.1 µM and a TGI greater than 25 µM. In the case of `Cc1cc(Cl)cc(OCCn2cc(F)cn2)c1-c1nc(N)nc2c1CN(C(=O)NCC(C)(F)F)C2`, the GI50 is reported as 0.233 µM and the TGI is reported as greater than 100 µM. `COc1ccc(/C=C\[N+](=O)[O-])cc1OC` gave a GI50 of 22.9 µM and a TGI of 88.8 µM. `CCN(CC)CCC(CNc1ccnc2cc(Cl)ccc12)c1ccc(Cl)cc1` (stereo unspecified) showed a GI50 of 2.46 µM and a TGI of 8.19 µM. With `COc1cccc(F)c1C(=O)c1cnc(NC2CCN(S(C)(=O)=O)CC2)nc1N` the GI50 was 3.72 µM and the TGI was greater than 18.9 µM. With `c1ccc2cc(-c3cc4ccccc4s3)ccc2c1` the TGI was greater than 100 µM. `CCOC(=O)C(C#N)C1=CC(=O)C(=O)c2ccc(OC)cc21` (stereo unspecified) gave a TGI of 49.7 µM. In the case of `COc1cc(OCc2cccc(-c3ccc(C(O)c4nccs4)cc3)c2C)cc(OC)c1C=O` (stereo unspecified), the GI50 is reported as 0.37 µM and the TGI is reported as 2.7 µM. In the case of `COC(=O)c1ccc2c(c1)nc(NC(=O)c1ccccc1)n2CCCc1ccccc1`, the GI50 is reported as 11.2 µM and the TGI is reported as greater than 100 µM. For `Cc1ccc(S(=O)(=O)Nc2ccccc2C=O)cc1`, the TGI was 41.5 µM. With `O=C(O)COc1ccc2c(=O)c3sc4c(=O)c5ccccc5c(=O)c4c3c(=O)c2c1` the GI50 was 15 µM and the TGI was 41.1 µM. `Cc1ccc(S(=O)(=O)N(C=O)N=C2CCN(Cc3ccccc3)CC2)cc1` was tested, and the TGI was greater than 100 µM. `CC1(C)S[C@@H]2[C@H](NC(=O)C3(N)CCCCC3)C(=O)N2[C@H]1C(=O)O` gave a TGI greater than 100 µM. For `NC(=O)/C=C/C(=O)c1c(Cl)cccc1Cl`, the GI50 was 2.52 µM and the TGI was 8.25 µM.
